Results: PubChem BioAssay (NCI)
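Five compound concentrations were applied to cells in 96-well plates for 48 hours; endpoints were derived by simple linear interpolation of the resulting dose-response curve. GI50: concentration for 50% inhibition of growth. At the TGI there is no net growth.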

Assays:
Experiment in all cases: NCI anticancer screen, dose series, 48 h
786-0 renal = tested on: 786-0 renal
CAKI-1 renal = tested on: CAKI-1 renal
KM12 colon = tested on: KM12 colon
SF-295 CNS = tested on: SF-295 CNS
MCF7 breast = tested on: MCF7 breast
RPMI-8226 leukemia = tested on: RPMI-8226 leukemia
NCI-H460 lung = tested on: NCI-H460 lung
DU-145 prostate = tested on: DU-145 prostate
COLO 205 colon = tested on: COLO 205 colon
SF-539 CNS = tested on: SF-539 CNS
HOP-62 NSCLC = tested on: HOP-62 NSCLC
OVCAR-4 ovarian = tested on: OVCAR-4 ovarian
SN12C renal = tested on: SN12C renal
NCI-H23 lung = tested on: NCI-H23 lung
OVCAR-3 ovarian = tested on: OVCAR-3 ovarian
OVCAR-8 ovarian = tested on: OVCAR-8 ovarian
SNB-75 CNS = tested on: SNB-75 CNS
K-562 leukemia = tested on: K-562 leukemia
M14 melanoma = tested on: M14 melanoma
MDA-MB-231 breast = tested on: MDA-MB-231 breast
OVCAR-5 ovarian = tested on: OVCAR-5 ovarian
CCRF-CEM leukemia = tested on: CCRF-CEM leukemia
HT29 colon = tested on: HT29 colon
LOX IMVI melanoma = tested on: LOX IMVI melanoma
HS 578T breast = tested on: HS 578T breast
NCI-H226 lung = tested on: NCI-H226 lung
NCI/ADR-RES ovarian = tested on: NCI/ADR-RES ovarian
TK-10 renal = tested on: TK-10 renal
NCI-H522 lung = tested on: NCI-H522 lung
HCC-2998 colon = tested on: HCC-2998 colon
HCT-15 colon = tested on: HCT-15 colon
SK-MEL-5 melanoma = tested on: SK-MEL-5 melanoma
SF-268 CNS = tested on: SF-268 CNS
SK-MEL-2 melanoma = tested on: SK-MEL-2 melanoma
UACC-257 melanoma = tested on: UACC-257 melanoma
SNB-19 CNS = tested on: SNB-19 CNS
SK-OV-3 ovarian = tested on: SK-OV-3 ovarian
BT-549 breast = tested on: BT-549 breast
UACC-62 melanoma = tested on: UACC-62 melanoma
PC-3 prostate = tested on: PC-3 prostate
SW-620 colon = tested on: SW-620 colon
MOLT-4 leukemia = tested on: MOLT-4 leukemia
U251 CNS = tested on: U251 CNS
HOP-92 NSCLC = tested on: HOP-92 NSCLC
UO-31 renal = tested on: UO-31 renal
IGROV1 ovarian = tested on: IGROV1 ovarian
EKVX NSCLC = tested on: EKVX NSCLC
SK-MEL-28 melanoma = tested on: SK-MEL-28 melanoma
MDA-MB-435 = tested on: MDA-MB-435
T-47D breast = tested on: T-47D breast
A549 NSCLC = tested on: A549 NSCLC
ACHN renal = tested on: ACHN renal
RXF 393 renal = tested on: RXF 393 renal
MALME-3M melanoma = tested on: MALME-3M melanoma
SR leukemia = tested on: SR leukemia

O=C1c2ccccc2-c2c1c1ccc3ccccc3c1n2-c1ccccc1
GI50 (786-0 renal): 25.3 µM | TGI (786-0 renal): 53.9 µM | GI50 (CAKI-1 renal): 22 µM | TGI (CAKI-1 renal): 40.9 µM | GI50 (KM12 colon): 21.3 µM | TGI (KM12 colon): > 100 µM | GI50 (SF-295 CNS): 22.9 µM | TGI (SF-295 CNS): 67.4 µM | GI50 (MCF7 breast): 15.6 µM | TGI (MCF7 breast): > 100 µM | GI50 (RPMI-8226 leukemia): 65.1 µM | TGI (RPMI-8226 leukemia): > 100 µM | GI50 (NCI-H460 lung): 31.7 µM | TGI (NCI-H460 lung): > 100 µM | GI50 (DU-145 prostate): 39 µM | TGI (DU-145 prostate): > 100 µM | GI50 (COLO 205 colon): 30.7 µM | TGI (COLO 205 colon): > 100 µM | GI50 (SF-539 CNS): 18.2 µM | TGI (SF-539 CNS): 36.3 µM | GI50 (HOP-62 NSCLC): 25.1 µM | TGI (HOP-62 NSCLC): 58.7 µM | GI50 (OVCAR-4 ovarian): > 100 µM | TGI (OVCAR-4 ovarian): > 100 µM | GI50 (SN12C renal): 20.5 µM | TGI (SN12C renal): 50 µM | GI50 (NCI-H23 lung): 56.8 µM | TGI (NCI-H23 lung): > 100 µM | GI50 (OVCAR-3 ovarian): 24.6 µM | TGI (OVCAR-3 ovarian): 57.6 µM | GI50 (OVCAR-8 ovarian): 23 µM | TGI (OVCAR-8 ovarian): 54.7 µM | GI50 (SNB-75 CNS): 81.2 µM | TGI (SNB-75 CNS): > 100 µM | GI50 (K-562 leukemia): > 100 µM | TGI (K-562 leukemia): > 100 µM | GI50 (M14 melanoma): 94.1 µM | TGI (M14 melanoma): > 100 µM | GI50 (MDA-MB-231 breast): 22.3 µM | TGI (MDA-MB-231 breast): 47.3 µM | GI50 (OVCAR-5 ovarian): 29.2 µM | TGI (OVCAR-5 ovarian): > 100 µM | GI50 (CCRF-CEM leukemia): > 100 µM | TGI (CCRF-CEM leukemia): > 100 µM | GI50 (HT29 colon): > 100 µM | TGI (HT29 colon): > 100 µM | GI50 (LOX IMVI melanoma): 39 µM | TGI (LOX IMVI melanoma): > 100 µM | GI50 (HS 578T breast): 18 µM | TGI (HS 578T breast): 39.2 µM | GI50 (NCI-H226 lung): 27.9 µM | TGI (NCI-H226 lung): 75.2 µM | GI50 (NCI/ADR-RES ovarian): 20.7 µM | TGI (NCI/ADR-RES ovarian): 58.5 µM | GI50 (TK-10 renal): 20.6 µM | TGI (TK-10 renal): 44.7 µM | GI50 (NCI-H522 lung): 53.1 µM | TGI (NCI-H522 lung): > 100 µM | GI50 (HCC-2998 colon): 30.5 µM | TGI (HCC-2998 colon): 94.4 µM | GI50 (HCT-15 colon): > 100 µM | TGI (HCT-15 colon): > 100 µM | GI50 (SK-MEL-5 melanoma): 16.5 µM | TGI (SK-MEL-5 melanoma): 50.1 µM | GI50 (SF-268 CNS): 20 µM | TGI (SF-268 CNS): 52.3 µM | GI50 (SK-MEL-2 melanoma): > 100 µM | TGI (SK-MEL-2 melanoma): > 100 µM | GI50 (UACC-257 melanoma): 64.8 µM | TGI (UACC-257 melanoma): > 100 µM | GI50 (SNB-19 CNS): 25.7 µM | TGI (SNB-19 CNS): 59.1 µM | GI50 (SK-OV-3 ovarian): 26.2 µM | TGI (SK-OV-3 ovarian): 54.1 µM | GI50 (BT-549 breast): 44.7 µM | TGI (BT-549 breast): > 100 µM | GI50 (UACC-62 melanoma): 20.4 µM | TGI (UACC-62 melanoma): 44.2 µM | GI50 (PC-3 prostate): 35.7 µM | TGI (PC-3 prostate): > 100 µM | GI50 (SW-620 colon): 59.5 µM | TGI (SW-620 colon): > 100 µM | GI50 (MOLT-4 leukemia): > 100 µM | TGI (MOLT-4 leukemia): > 100 µM | GI50 (U251 CNS): 18.9 µM | TGI (U251 CNS): 35.7 µM | GI50 (HOP-92 NSCLC): 16 µM | TGI (HOP-92 NSCLC): 52.1 µM | GI50 (UO-31 renal): 44.7 µM | TGI (UO-31 renal): > 100 µM | GI50 (IGROV1 ovarian): 29.7 µM | TGI (IGROV1 ovarian): > 100 µM | GI50 (EKVX NSCLC): 40 µM | TGI (EKVX NSCLC): > 100 µM | GI50 (SK-MEL-28 melanoma): > 100 µM | TGI (SK-MEL-28 melanoma): > 100 µM | GI50 (MDA-MB-435): 97.9 µM | TGI (MDA-MB-435): > 100 µM | GI50 (T-47D breast): 12.7 µM | TGI (T-47D breast): 41.5 µM | GI50 (A549 NSCLC): 36.5 µM | TGI (A549 NSCLC): 93.5 µM | GI50 (ACHN renal): 20.5 µM | TGI (ACHN renal): 40.2 µM | GI50 (RXF 393 renal): 18.9 µM | TGI (RXF 393 renal): 52.1 µM | GI50 (MALME-3M melanoma): 28.1 µM | TGI (MALME-3M melanoma): 66.2 µM | GI50 (SR leukemia): 41.9 µM | TGI (SR leukemia): > 100 µM
